Series [1] has as its target ATP-dependent translocase ABCB1 (Mus musculus, UniProt P21447). Description: TP_TRANSPORTER: decrease in intestinal clearance in mdr1a(-/-) mouse. The format is functional, tissue-based, Intestine.
Series [2] addresses ATP-dependent translocase ABCB1 (Homo sapiens, UniProt P08183). Description: TP_TRANSPORTER: transepithelial transport (basal to apical) in MDR1-expressing LLC-PK1 cells. The format is functional, cell-based. As to conditions: pig.

Chain of ATP-dependent translocase ABCB1 (Homo sapiens, UniProt P08183) (P08183 whole entry): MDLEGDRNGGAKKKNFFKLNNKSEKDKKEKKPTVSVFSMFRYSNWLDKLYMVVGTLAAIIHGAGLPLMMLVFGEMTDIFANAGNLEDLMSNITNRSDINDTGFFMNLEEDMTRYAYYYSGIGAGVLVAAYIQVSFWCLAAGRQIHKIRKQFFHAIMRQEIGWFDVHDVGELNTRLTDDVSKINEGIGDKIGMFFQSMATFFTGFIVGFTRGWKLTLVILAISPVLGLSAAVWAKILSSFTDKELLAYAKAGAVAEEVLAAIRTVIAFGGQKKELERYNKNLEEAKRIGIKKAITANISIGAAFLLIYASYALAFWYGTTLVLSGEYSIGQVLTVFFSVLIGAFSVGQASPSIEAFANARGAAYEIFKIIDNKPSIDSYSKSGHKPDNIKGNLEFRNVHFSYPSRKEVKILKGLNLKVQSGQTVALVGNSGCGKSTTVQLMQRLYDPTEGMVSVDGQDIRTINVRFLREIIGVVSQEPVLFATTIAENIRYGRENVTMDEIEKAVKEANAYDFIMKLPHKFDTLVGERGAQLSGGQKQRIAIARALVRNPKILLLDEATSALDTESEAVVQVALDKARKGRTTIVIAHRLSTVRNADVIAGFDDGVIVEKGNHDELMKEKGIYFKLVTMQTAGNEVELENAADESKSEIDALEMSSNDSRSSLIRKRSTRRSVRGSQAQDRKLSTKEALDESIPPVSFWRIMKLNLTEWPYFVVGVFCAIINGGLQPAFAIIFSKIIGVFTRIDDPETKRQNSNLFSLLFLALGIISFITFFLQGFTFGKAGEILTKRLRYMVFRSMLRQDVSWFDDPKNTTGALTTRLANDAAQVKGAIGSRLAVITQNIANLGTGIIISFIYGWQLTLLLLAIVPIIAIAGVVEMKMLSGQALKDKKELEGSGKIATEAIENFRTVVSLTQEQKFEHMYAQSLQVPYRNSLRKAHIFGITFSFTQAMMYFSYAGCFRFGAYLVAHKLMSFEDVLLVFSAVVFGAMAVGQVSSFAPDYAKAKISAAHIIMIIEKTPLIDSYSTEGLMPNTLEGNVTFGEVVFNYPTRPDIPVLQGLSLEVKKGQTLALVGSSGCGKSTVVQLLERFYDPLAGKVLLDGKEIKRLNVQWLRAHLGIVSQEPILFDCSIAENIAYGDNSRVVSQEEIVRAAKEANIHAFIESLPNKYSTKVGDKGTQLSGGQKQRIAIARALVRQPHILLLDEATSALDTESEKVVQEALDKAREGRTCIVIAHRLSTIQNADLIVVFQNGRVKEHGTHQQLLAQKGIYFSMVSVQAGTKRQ
Chain of ATP-dependent translocase ABCB1 (Mus musculus, UniProt P21447) (P21447 whole entry): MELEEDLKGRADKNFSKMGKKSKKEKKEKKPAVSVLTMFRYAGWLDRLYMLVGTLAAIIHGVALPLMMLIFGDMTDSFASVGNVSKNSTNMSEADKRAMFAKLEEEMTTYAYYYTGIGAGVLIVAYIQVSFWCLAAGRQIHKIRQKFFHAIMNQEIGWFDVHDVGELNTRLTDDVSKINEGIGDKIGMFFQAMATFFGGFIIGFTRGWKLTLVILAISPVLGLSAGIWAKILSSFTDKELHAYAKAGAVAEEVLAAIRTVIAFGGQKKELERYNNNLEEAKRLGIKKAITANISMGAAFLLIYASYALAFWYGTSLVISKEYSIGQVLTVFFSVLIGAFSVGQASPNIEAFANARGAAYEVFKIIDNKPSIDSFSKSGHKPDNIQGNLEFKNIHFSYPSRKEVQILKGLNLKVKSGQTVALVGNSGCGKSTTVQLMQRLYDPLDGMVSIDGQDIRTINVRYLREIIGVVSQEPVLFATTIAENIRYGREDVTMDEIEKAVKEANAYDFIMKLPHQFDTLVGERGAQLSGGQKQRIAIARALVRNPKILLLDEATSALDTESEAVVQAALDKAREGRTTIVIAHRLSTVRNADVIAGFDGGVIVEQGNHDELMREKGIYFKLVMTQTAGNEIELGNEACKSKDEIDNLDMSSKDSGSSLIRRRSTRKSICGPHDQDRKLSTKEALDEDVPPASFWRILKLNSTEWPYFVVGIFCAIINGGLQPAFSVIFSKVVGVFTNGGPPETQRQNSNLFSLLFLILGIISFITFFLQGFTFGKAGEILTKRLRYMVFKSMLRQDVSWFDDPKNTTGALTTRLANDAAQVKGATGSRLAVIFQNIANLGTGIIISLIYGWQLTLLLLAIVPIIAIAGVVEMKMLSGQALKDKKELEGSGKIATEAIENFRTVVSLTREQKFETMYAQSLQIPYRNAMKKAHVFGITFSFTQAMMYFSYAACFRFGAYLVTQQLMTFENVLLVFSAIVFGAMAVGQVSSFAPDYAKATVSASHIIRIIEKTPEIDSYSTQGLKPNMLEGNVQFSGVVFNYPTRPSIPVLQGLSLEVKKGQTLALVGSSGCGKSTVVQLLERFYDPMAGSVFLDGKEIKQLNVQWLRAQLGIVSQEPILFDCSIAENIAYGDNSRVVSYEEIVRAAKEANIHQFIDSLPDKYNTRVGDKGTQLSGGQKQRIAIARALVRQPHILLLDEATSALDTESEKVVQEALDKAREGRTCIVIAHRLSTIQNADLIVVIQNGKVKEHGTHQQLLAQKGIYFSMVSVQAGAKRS

For `Cc1c(F)c(N2CCNC(C)C2)cc2c1c(=O)c(C(=O)O)cn2C1CC1` (stereo not drawn) [GREPAFLOXACIN], the Activity entry in series [1] and in series [2] was “substrate [+]” throughout.
On to `C[C@@H]1CN(c2c(F)c(N)c3c(=O)c(C(=O)O)cn(C4CC4)c3c2F)C[C@H](C)N1` [SPARFLOXACIN], for which the Activity entry in series [2] was “substrate [+]”.

(Values after ChEMBL document CHEMBL2074062, “Active intestinal secretion of new quinolone antimicrobials and the partial contribution of P-glycoprotein” (J Pharm Pharmacol, 2001).)
